Measured values from US20140121216A1, “INDOLEAMINE DERIVATIVES FOR THE TREATMENT OF CENTRAL NERVOUS SYSTEM DISEASES” (Adamed Sp. z o.o., priority 2011, published 2014).

Legend:
[1] = target: T1, D2S (h), human recombinant (HEK-293 cells) (Homo sapiens, UniProt P14416); assay: Cellular functional assay D2S (h) agonism; assay type: cell-based; conditions: HEK293; compound 1×10^−6 M; control 3 μM dopamine; read-out: D2-ag [%]
T1 construct: expressed in transfected cells; host or cells: HEK-293 cells
Protocol: (§1) The results are expressed as a percent of control specific agonist response ((measured specific response/control specific agonist response)×100) obtained in the presence of tested compound.
(§2) The EC50 values (concentration producing a half-maximal specific response) and IC50 values (concentration causing a half-maximal inhibition of the control specific agonist response) were determined by non-linear regression analysis of the concentration-response curves generated with mean replicate values using Hill equation curve fitting (Y=D+[(A−D)/(1+(C/C50)nH)], where Y=specific response, D=minimum specific response, A=maximum specific response, C=compound concentration, and C50=EC50 or IC50, and nH=slope factor).
(§3) For the antagonists, the apparent dissociation constants (Kb) were calculated using the modified Cheng Prusoff equation (Kb=IC50/(1+(A/EC50A)), where A=concentration of reference agonist in the assay, and EC50A=EC50 value of the reference agonist).

[2] = target: T2, 5-HT1A (h), human recombinant (CHO cells) (Homo sapiens, UniProt P08908); assay: Cellular functional assay 5-HT1A (h) antagonism; assay type: cell-based; conditions: compound 1×10^−6 M; stimulus 8-OH-DPAT 10 nM
T2 construct: expressed in transfected cells; host or cells: CHO cells
T2 sequence (P08908 1-422): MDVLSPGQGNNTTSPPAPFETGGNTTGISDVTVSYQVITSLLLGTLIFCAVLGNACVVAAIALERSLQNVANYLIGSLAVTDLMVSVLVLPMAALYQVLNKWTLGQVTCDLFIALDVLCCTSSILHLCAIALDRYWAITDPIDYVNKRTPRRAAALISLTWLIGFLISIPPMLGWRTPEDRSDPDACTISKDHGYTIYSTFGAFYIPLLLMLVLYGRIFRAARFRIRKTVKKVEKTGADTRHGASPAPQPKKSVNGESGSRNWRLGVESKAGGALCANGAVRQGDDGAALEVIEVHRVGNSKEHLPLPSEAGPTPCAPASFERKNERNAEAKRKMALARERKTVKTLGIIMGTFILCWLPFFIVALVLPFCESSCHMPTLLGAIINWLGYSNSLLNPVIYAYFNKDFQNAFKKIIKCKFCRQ
Protocol: as §1, §2, §3

[3] = target: T3, 5-HT2A (h), human recombinant (HEK-293 cells) (Homo sapiens, UniProt P28223); assay: Cellular functional assay 5-HT2A (h) antagonism; assay type: cell-based; conditions: compound 1×10^−6 M; stimulus serotonin 100 nM
T3 construct: expressed in transfected cells; host or cells: HEK-293 cells
Protocol: as §1, §2, §3

[4] = target: T4, D3 (h), human recombinant (CHO cells) (Homo sapiens, UniProt P35462); assay: Cellular functional assay D3 (h) agonism; assay type: cell-based; conditions: compound 1×10^−6 M; control 0.3 μM dopamine
T4 construct: expressed in transfected cells; host or cells: CHO cells
Protocol: as §1, §2, §3

[5] = target: T5, D4.4 receptor, human recombinant (CHO cells) (Homo sapiens, UniProt P21917); assay: Binding assay, dopaminergic D4.4 receptor ([3H]methylspiperone); conditions: compound 1×10^−6 M
T5 construct: expressed in transfected cells; host or cells: CHO cells
T5 sequence (P21917 1-419): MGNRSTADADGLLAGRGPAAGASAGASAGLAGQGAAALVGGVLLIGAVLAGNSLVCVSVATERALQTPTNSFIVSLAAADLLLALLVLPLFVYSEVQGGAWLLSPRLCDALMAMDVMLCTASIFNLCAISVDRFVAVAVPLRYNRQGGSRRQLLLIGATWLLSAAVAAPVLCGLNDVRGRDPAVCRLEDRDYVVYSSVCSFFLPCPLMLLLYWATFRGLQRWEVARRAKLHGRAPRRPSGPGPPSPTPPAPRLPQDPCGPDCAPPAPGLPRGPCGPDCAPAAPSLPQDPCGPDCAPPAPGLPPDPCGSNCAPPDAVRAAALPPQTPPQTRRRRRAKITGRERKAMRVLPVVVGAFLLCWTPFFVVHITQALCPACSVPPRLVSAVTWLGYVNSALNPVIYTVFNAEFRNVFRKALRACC
Protocol: (§4) Moreover, ability of the compounds of the invention to block potassium channel hERG was tested.
(§5) The specific ligand binding to the receptors is defined as the difference between the total binding and the non-specific binding determined in the presence of an excess of unlabelled ligand.
(§6) The inhibition constants (Ki) were calculated using the Cheng Prusoff equation (Ki=IC50/(1+(L/KD)), where L=concentration of radioligand in the assay, and KD=affinity of the radioligand for the receptor). A Scatchard plot is used to determine the Kd. The IC50 values (concentration causing a half-maximal inhibition of control specific binding) and Hill coefficients (nH) were determined by non-linear regression analysis of the competition curves generated with mean replicate values using Hill equation curve fitting (Y=D+[(A−D)/(1+(C/C50)^nH)], where Y=specific binding, D=minimum specific binding, A=maximum specific binding, C=compound concentration, C50=IC50, and nH=slope factor). This analysis was performed using a software developed at Cerep (Hill software) and validated by comparison with data generated by the commercial software SigmaPlot® 4.0 for Windows® (©1997 by SPSS Inc.).
Experimental conditions for tests are given in Table 1, the results of tests for so representative compounds are given in Table 2a and 2b (receptors D2 and D3) and in Table 3 (receptors D4).

[6] = target: T6, 5-HT6 (h), human recombinant (CHO cells) (Homo sapiens, UniProt P50406); assay: Cellular functional assay 5-HT6 (h) agonism; assay type: cell-based; conditions: compound 1×10^−6 M, control 10 μM serotonin, read-out: 5-HT6-ag [%]
T6 construct: expressed in transfected cells; host or cells: CHO cells
Protocol: as §1, §2, §3

[7] = target: T2, 5-HT1A (h), human recombinant (CHO cells); assay: Cellular functional assay 5-HT1A (h) agonism; assay type: cell-based; conditions: compound 1×10^−6 M; control 100 nM 8-OHDPAT
Protocol: as §1, §2, §3

[8] = target: T7, α2C adrenergic receptors, human recombinant (CHO cells) (Homo sapiens, UniProt P18825); assay: Binding assay, α2C adrenergic receptor ([3H]RX 821002); conditions: for α2C [%] affinity test result: compound 1×10^−6 M; for Ki: read-out: Inhibition constant Ki α2C
T7 construct: expressed in transfected cells; host or cells: CHO cells
T7 sequence (P18825 1-462): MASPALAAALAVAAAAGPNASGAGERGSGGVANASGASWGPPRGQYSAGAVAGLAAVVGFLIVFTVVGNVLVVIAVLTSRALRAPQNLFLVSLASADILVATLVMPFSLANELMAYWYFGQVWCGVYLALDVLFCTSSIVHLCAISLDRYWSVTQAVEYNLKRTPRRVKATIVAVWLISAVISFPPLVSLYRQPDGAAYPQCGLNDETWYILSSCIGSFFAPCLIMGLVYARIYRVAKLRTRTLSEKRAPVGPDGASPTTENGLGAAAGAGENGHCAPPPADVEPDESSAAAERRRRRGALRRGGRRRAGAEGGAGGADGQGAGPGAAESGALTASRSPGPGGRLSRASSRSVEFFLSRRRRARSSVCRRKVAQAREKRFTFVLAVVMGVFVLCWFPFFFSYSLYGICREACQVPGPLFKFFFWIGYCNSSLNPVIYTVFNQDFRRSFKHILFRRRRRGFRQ
Protocol: as §4, §5, §6
Experimental conditions for tests are given in Table 7, and results of tests for representative compounds are given in Tables 8a and 8b (α1 receptors) and in Tables 9a and 9b (α2C receptors).

T4 sequence (P35462 whole entry): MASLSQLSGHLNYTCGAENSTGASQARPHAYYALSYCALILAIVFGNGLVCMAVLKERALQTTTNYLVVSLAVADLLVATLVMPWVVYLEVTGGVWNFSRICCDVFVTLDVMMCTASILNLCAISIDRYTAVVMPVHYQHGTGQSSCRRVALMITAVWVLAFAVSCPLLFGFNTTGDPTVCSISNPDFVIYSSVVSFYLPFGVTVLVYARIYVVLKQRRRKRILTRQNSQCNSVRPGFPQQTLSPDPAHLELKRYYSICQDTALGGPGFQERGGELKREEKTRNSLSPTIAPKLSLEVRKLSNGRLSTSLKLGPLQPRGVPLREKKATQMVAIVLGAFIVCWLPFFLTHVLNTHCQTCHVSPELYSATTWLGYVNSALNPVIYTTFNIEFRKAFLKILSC
T6 sequence (P50406 whole entry): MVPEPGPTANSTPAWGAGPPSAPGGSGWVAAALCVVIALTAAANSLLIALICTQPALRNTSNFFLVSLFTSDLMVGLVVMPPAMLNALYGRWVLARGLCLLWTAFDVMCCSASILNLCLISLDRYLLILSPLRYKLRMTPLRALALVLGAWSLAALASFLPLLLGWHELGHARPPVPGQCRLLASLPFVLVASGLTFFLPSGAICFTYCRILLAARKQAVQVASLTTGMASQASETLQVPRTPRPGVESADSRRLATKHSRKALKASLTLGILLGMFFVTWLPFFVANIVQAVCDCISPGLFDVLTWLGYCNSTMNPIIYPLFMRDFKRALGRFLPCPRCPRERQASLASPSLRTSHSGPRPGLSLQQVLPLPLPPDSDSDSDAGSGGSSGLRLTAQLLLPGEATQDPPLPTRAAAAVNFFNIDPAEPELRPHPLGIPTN
T3 sequence (P28223 whole entry): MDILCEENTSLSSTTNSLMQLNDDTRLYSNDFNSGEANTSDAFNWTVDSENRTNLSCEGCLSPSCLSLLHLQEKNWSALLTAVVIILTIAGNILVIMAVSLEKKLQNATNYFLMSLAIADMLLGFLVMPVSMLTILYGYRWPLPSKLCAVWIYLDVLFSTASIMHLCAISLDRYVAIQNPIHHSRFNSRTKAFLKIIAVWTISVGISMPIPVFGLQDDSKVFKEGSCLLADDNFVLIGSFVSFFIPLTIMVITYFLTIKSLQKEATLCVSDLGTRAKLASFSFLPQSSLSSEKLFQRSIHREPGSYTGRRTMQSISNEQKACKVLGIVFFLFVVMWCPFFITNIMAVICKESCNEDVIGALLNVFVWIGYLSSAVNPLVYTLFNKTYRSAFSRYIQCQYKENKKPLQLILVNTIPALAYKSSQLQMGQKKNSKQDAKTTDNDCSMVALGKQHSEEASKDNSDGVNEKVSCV
T1 sequence (P14416 1-414 isoform P14416-2): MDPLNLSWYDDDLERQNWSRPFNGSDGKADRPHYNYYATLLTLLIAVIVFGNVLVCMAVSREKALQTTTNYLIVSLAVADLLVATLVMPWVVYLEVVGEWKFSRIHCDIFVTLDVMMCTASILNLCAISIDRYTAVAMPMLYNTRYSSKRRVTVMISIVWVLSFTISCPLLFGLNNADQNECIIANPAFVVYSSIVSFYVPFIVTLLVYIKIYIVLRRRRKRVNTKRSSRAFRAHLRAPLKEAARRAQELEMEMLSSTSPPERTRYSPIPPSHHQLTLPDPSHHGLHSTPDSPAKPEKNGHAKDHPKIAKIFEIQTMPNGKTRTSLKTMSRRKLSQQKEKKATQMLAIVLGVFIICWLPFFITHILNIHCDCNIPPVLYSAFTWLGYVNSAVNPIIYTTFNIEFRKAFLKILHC

Row | Structure (SMILES) | activation at 1 µM [1] | 5-HT1A-antag [%] [2] | 5-HT2A-antag [%] [3] | D3-ag [%] [4] | D4.4 [%] binding assay result [5] | activation at 1 µM [6] | 5-HT1A-ag [%] [7] | α2C [%] affinity test result [8] | Ki [8]
1 | O=C1CCc2ccc(OCCCCN3CCN(c4cccc5c4ccn5Cc4cccc(Cl)c4)CC3)cc2N1 [Compound 67, 7-[4-[4-[1-[(3-Chlorophenyl)methyl]indol-4-yl]piperazin-1-yl]butoxy]-3,4-dihydro-1H-quinolin-2-one] | 46% | 56% | 34% | 11% | 44% | 0% | 23% | 97% | –
2 | O=C1CCc2ccc(OCCCN3CCN(c4cccc5c4ccn5S(=O)(=O)c4ccccc4)CC3)cc2N1 [Compound 23, 7-[3-[4-[1-(Benzensulphonyl)indol-4-yl]piperazin-1-yl]propoxy]-3,4-dihydro-1H-quinolin-2-one] | 40% | 20% | – | 65% | 18% | 2% | 69% | 32% | 440 nM
3 | O=C1CCc2ccc(OCCCCN3CCN(c4cccc5c4ccn5S(=O)(=O)c4ccccc4)CC3)cc2N1 [Compound 24, 7-(4-(4-(1-(Phenylsulphonyl)-1H-indol-4-yl)piperazin-1-yl)butoxy)-3,4-dihydroquinolin-2(1H)-one] | 47% | 0% | 34.2% | 13% | 42% | 0% | 69.7% | 78% | 150 nM
4 | O=C1CCc2ccc(OCCCCN3CCN(c4cccc5c4ccn5Cc4cccc(F)c4)CC3)cc2N1 [Compound 63, 7-[4-[4-[1-[(3-Fluorophenyl)methyl]indol-4-yl]piperazin-1-yl]butoxy]-3,4-dihydro-1H-quinolin-2-one] | 47% | 73% | 63% | 20% | 46% | -1% | 26% | 100% | –
5 | O=C1CCc2ccc(OCCCN3CCN(c4cccc5c4ccn5Cc4ccccc4)CC3)cc2N1 [Compound 4, 7-[3-[4-(1-Benzylindol-4-yl)piperazin-1-yl]propoxy]-3,4-dihydro-1H-quinolin-2-one] | 45% | 17% | 17% | 22% | 63% | 0% | 63% | 93% | –
6 | O=C1CCc2ccc(OCCCCN3CCN(c4cccc5c4ccn5Cc4ccccc4)CC3)cc2N1 [Compound 5, 7-(4-(4-(1-Benzyl-1H-indol-4-yl)piperazin-1-yl)butoxy)-3,4-dihydroquinolin-2(1H)-one] | 47% | 31% | 66% | 22% | 40% | -1% | 66% | 93% | –
7 | NC(=O)c1ccccc1OCCCN1CCN(c2cccc3c2ccn3S(=O)(=O)c2ccccc2)CC1 [Compound 72, 2-[3-[4-[1-(Benzenesulfonyl)indol-4-yl]piperazin-1-yl]propoxy]-benzamide] | 34% | 61% | 45% | 34% | 95% | -2% | 16% | 74% | –
